Measurements from patent US11453669B2, “Polycyclic pyridone derivative” (Shionogi & Co., Ltd., priority 2018, dated 2022).
pEC50: −log10 of the molar value.

How the values were obtained:
HIV = assay: Anti-HIV activity (MT-4 cells, MTT); type: cell-based; details: Human immunodeficiency virus 1, MT4, 96 h, read-out: EC50_nM (50% HIV inhibitory concentration)
Method: Serial dilutions of a test sample were prepared in a 96-well microplate (50 μL/well). 2.5×10^5 cells/mL of an MT-4 cell suspension was dispensed at 100 μL/well to the plate containing the test sample. Then, an HIV virus solution was dispensed at 50 μL/well. The plate was mixed with a plate mixer and cultured for 4 days in a CO2 incubator. An MTT (3-(4,5-dimethylthiazol-2-yl)-2,5-diphenyltetrazolium bromide) solution was dispensed at 30 μL/well. The plate was reacted for 1 hour in a CO2 incubator. 150 μL of the supernatant was removed from each well so as not to take up the cells. 150 μL of a cell lysis solution was added to each well and well mixed with a plate mixer until the cells were completely lysed. The absorbance of the mixed plate was measured at two wavelengths of 560 nm and 690 nm using a microplate reader.

[1] = tested on: HIV mutant strain 1 (E138K/G140S/Q148H/N155H); type: cell-based; details: FC=EC50 of the mutant strain/EC50 of the wild strain, HeLa-CD4 cells
Method: (§1) Serial dilutions of a test sample were prepared in a 96-well microplate (50 μL/well). 2.5×10^5 cells/mL of a HeLa-CD4 cell suspension was dispensed at 100 μL/well to the plate containing the test sample. Then, an HIV virus solution (wild strain and mutant strain) was dispensed at 50 μL/well. The plate was mixed with a plate mixer and cultured for 3 days in a CO2 incubator. The culture supernatant in each well was removed by suction. A cell lysis buffer in a reporter assay kit was dispensed at 100 μL/well, and the plate was frozen in a freezer (−80° C.). The plate frozen in a freezer was thawed at room temperature, then mixed with a plate mixer, and centrifuged at 1,200 rpm for 5 minutes. The supernatant of each well was dispensed at 20 μL/well to a 96-well microplate (BLACK). A chemiluminescent in the reporter assay kit reagent was dispensed at 100 μL/well and reacted at room temperature for approximately 1 hour. Then, luminescence intensity was measured using MicroBeta TRILUX.

[2] = tested on: HIV mutant strain 2 (E92Q/E138T/G140S/Q148H); type: cell-based; details: FC=EC50 of the mutant strain/EC50 of the wild strain, HeLa-CD4 cells
Method: as §1

[3] = type: in vitro ADME; details: human, 30 min, 0.5 μmol/L, pH 7.4
Method: Using commercially available pooled human liver microsomes, a compound of the present invention was reacted for a constant time, and a remaining rate was calculated by comparing a reacted sample and an unreacted sample, thereby, a degree at which the compound of the present invention was metabolized in liver was assessed.
A reaction was performed (oxidative reaction) at 37° C. for 0 minute or 30 minutes in the presence of 1 mmol/L NADPH in 0.2 mL of a buffer solution (50 mmol/L Tris-HCl pH 7.4, 150 mmol/L potassium chloride, 10 mmol/L magnesium chloride) containing 0.5 mg protein/mL of human liver microsomes. After the reaction, 50 μL of the reaction solution was added to 100 μL of a solution of methanol/acetonitrile=1/1 (v/v), and the mixture was mixed and centrifuged at 3000 rpm for 15 minutes. The compound of the present invention in the centrifugation supernatant was quantified by LC/MS/MS or solid-phase extraction (SPE)/MS. The amount of the compound of the present invention remaining after the reaction was calculated with the amount of the compound at 0 minutes of the reaction defined as 100%.

[4] = molecular target: T1, Voltage gated sodium channel (Nav1.5 channel) encoded by SCN5A gene (Homo sapiens, UniProt Q14524); assay: Nav test (QPatch whole cell patch clamp); type: cell-based; details: HEK cells expressing Nav1.5, applied 5 minutes or more, room temperature
T1 construct: expressed in transfected cells; host or cells: HEK cells
T1 sequence (Q14524 whole entry): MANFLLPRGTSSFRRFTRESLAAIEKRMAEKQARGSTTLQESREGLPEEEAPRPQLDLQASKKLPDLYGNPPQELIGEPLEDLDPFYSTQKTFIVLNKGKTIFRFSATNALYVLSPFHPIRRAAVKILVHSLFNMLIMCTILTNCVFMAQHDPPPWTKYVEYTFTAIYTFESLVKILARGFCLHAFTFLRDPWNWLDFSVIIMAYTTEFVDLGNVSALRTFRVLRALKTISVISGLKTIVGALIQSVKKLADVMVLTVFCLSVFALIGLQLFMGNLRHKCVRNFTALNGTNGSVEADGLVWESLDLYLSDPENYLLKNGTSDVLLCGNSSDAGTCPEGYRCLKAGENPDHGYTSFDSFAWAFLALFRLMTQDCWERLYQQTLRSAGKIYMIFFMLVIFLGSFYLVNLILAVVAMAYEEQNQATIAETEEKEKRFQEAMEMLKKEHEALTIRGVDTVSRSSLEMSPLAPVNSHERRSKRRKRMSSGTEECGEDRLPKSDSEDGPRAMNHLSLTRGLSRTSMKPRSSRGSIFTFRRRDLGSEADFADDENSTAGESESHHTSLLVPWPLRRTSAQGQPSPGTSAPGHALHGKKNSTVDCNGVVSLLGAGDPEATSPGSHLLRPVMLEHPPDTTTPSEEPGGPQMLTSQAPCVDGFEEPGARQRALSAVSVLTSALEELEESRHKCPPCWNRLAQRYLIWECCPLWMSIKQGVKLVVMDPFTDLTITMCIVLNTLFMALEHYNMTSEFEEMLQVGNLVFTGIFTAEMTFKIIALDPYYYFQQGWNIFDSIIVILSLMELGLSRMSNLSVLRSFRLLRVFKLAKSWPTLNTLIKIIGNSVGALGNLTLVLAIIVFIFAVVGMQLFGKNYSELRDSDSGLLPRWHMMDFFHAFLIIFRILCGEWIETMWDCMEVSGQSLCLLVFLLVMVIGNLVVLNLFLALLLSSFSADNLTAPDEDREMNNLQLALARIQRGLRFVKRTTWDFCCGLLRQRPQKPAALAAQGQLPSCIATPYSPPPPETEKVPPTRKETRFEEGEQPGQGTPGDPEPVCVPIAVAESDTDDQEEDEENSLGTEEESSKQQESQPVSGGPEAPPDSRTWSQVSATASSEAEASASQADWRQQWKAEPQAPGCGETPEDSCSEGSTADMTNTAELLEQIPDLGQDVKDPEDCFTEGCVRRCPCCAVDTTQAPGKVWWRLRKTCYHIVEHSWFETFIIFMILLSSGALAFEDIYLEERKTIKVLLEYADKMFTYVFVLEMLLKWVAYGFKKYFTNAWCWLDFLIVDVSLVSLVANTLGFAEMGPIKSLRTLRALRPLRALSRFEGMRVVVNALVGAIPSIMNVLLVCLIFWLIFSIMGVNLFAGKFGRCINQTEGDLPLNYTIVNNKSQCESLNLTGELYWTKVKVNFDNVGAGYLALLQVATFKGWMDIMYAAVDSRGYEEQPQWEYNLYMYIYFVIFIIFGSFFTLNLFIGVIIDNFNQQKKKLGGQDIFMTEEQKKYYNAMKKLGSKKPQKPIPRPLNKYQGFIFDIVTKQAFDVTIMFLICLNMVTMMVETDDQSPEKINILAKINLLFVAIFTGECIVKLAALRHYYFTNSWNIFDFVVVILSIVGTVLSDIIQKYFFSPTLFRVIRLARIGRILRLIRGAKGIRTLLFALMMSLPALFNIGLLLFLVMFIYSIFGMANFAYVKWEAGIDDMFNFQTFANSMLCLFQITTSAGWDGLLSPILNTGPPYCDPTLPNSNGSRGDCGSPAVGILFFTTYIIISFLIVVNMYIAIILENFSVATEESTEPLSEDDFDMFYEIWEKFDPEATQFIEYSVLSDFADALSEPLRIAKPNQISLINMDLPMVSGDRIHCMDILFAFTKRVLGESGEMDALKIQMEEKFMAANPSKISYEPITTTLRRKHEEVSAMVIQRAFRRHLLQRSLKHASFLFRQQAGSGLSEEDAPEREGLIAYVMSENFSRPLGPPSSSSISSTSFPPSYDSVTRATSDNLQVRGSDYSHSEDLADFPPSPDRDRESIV
Method: A cell was retained at a membrane potential of −100 mV by whole cell patch clamp method using a fully automated patch clamp system (QPatch; Sophion Bioscience A/S), and INa induced by depolarization pulse stimulation at −10 mV for 20 ms was recorded. […] The extracellular solution in which the medium and the compound of the present invention had been dissolved at each objective concentration was applied to the cell for 5 minutes or more under conditions of room temperature.

Row | SMILES | pEC50 (HIV) | FC (fold change) for mutant strain 1 [1] | FC (fold change) for mutant strain 2 [2] | residual rate [3] | ratio of maximum peak current (INa) with compound relative to medium [4] [%]
1 | CCN1C(=O)c2c(O)c(=O)c(-c3nnc(Cc4ccc(F)cc4)s3)cn2N2[C@H](COC)CC[C@@H]12 [II-038] | 9.89 | 20 | 31 | 92.4 | 86.2
2 | CCN1C(=O)c2c(O)c(=O)c(-c3nnc(Cc4c(F)cc(F)cc4F)s3)cn2N2C[C@@H](C)CC[C@@H]12 [II-068] | 8.92 | 3.5 | 4.6 | 91.3 | –
3 | CCN1C(=O)c2c(O)c(=O)c(-c3nnc(Cc4c(F)cc(F)cc4F)s3)cn2N2CC[C@H](C)C[C@@H]12 [II-061] | 8.74 | 5.1 | 7.3 | 91.5 | –
4 | C[C@@H]1CCC[C@H]2N(C)C(=O)c3c(O)c(=O)c(-c4nnc(Cc5ccc(F)cc5F)s4)cn3N12 [II-043] | 8.46 | 6.8 | 11 | 103 | –
5 | CCN1C(=O)c2c(O)c(=O)c(-c3nnc(Cc4c(F)cc(F)cc4F)s3)cn2N2[C@H](C)CCC[C@@H]12 [II-044] | 8.85 | 11 | 26 | 88.5 | –
6 | CCN1C(=O)c2c(O)c(=O)c(-c3nnc(Cc4c(F)cc(F)cc4F)s3)cn2N2C[C@@H]3CC[C@@H](C3)[C@@H]12 [II-052] | 9.18 | 2.3 | 3.5 | 83.4 | –
7 | CCN1C(=O)c2c(O)c(=O)c(-c3nnc(Cc4c(F)cc(F)cc4F)s3)cn2N2C[C@@H]3CC[C@@H](O3)[C@@H]12 [II-046] | 9.22 | 17 | 20 | 97.2 | –
8 | CC(C)N1C(=O)c2c(O)c(=O)c(-c3nnc(Cc4c(F)cc(F)cc4F)s3)cn2N2C[C@@H]3CC[C@@H](O3)[C@@H]12 [II-054] | 9.00 | 3.5 | 8.2 | 98.8 | –
9 | CCN1C(=O)c2c(O)c(=O)c(-c3nnc(Cc4ccc(F)cc4F)s3)cn2N2C[C@@H](C)CC[C@@H]12 [II-067] | 9.52 | 5.2 | 5.1 | 93 | –
10 | CCN1C(=O)c2c(O)c(=O)c(-c3nnc(Cc4ccc(F)cc4F)s3)cn2N2CC[C@@H](C)C[C@@H]12 [II-033] | – | – | – | – | 90.7
11 | CCN1C(=O)c2c(O)c(=O)c(-c3nnc(Cc4c(F)cc(F)cc4F)s3)cn2N2CC[C@@H](C)C[C@@H]12 [II-057] | 8.77 | 3 | 3.6 | 82.5 | –
12 | CN1C(=O)c2c(O)c(=O)c(-c3nnc(Cc4ccc(F)cc4F)s3)cn2N2CCOC[C@@H]12 [II-010] | 8.89 | 25 | 22 | 106 | –
13 | CN1C(=O)c2c(O)c(=O)c(-c3nnc(Cc4c(F)cc(F)cc4F)s3)cn2N2C[C@@H]3CC[C@@H](C3)[C@@H]12 [II-063] | 9.22 | 14 | 12 | 96.5 | –
14 | CCN1C(=O)c2c(O)c(=O)c(-c3nnc(Cc4ccc(F)cc4)s3)cn2N2C[C@@H]3CC[C@@H](O3)[C@@H]12 [II-050] | 9.18 | 20 | 29 | 103 | –
15 | CCN1C(=O)c2c(O)c(=O)c(-c3nnc(Cc4c(F)cc(F)cc4F)s3)cn2N2C[C@@H](C)C[C@@H]12 [II-027] | 8.72 | 4.7 | 7 | 90.5 | –
